# From patent US20150368195A1, “INDOLINE COMPOUNDS FOR TREATMENT AND/OR PREVENTION OF INFLAMMATION DISEASES” (Taipei Medical University, priority 2014, published 2015)
# How the values were obtained:
# RA-FLS = test: cell cycle distribution by flow cytometry (propidium iodide); format: cell-based; settings: 24 h
# Excerpt: (§1) (FIG. 1A) Structure of MPT0G009. […] Results in (FIGS. 1B-E) and (FIG. 1G) are means±SEM's for three independent experiments, *p<0.05 and **p<0.01 compared with no added inhibitor.
# prostaglandin E2 (PGE2) = test: LPS-induced PGE2 production by RA-FLS; format: cell-based; settings: MPT0G009 0.1, 1, 10 μM; SAHA 0.3, 3, 30 μM; LPS 25 ng/mL 24 h
# Description: as §1
# Furthermore, the anti-inflammatory effects of MPT0G009 was evaluated. […] These supernatants were then assayed for PGE2, NO, and IL-6.
# CTGF = test: pro-fibrogenic mediator-induced CTGF production, Western blot; format: cell-based, human; settings: WI-38 lung fibroblasts
# Description: Western blot analysis was performed. First, WI-38 lung fibroblasts were incubated with different concentrations of MPT0E028 (0.01, 0.03, 0.1, 0.3, or 1 μM) (FIG. 10A) or MPT0G009 (0.01, 0.03, 0.1, 0.3, or 1 μM) (FIG. 10B) for 30 min before and during incubation for 2 h with TGF-β (10 ng/mL). WI-38 lung fibroblasts were incubated with 1 μM MPT0E028 and MPT0G009 for 30 min and following another incubation for 2 h with 1 U/ml thrombin (FIG. 10C) and 10 nM ET-1 (FIG. 10D). The collagen I production from WI-38 lung fibroblasts stimulated by 10 ng/mL TGF-β for 24 h was inhibited with 1 μM MPT0E028 and MPT0G009 pretreatment (FIG. 10E).
# WI-38 cells, a normal human embryonic lung fibroblast cell line, were obtained from American Type Culture Collection (Manassas, Va.). Cells were grown in MEM nutrient mixture, containing 10% FCS, 2 mM L-glutamine, 0.1 mM NEAA, 1 mM sodium pyruvate, 50 U/ml penicillin G, and 100 μg/ml streptomycin, in a humidified 37° C. incubator with 5% CO2 Cells were used between passages 18 and 30 for all experiments. After reaching confluence, cells were seeded onto 6-cm dishes for immunoblotting.
# Western blot analyses were performed as described previously (Chen B C, Chang Y S, Kang J C, Hsu M J, Sheu J R, Chen T L, et al. Peptidoglycan induces nuclear factor-kappaB activation and cyclooxygenase-2 expression via Ras, Raf-1, and ERK in RAW 264.7 macrophages. J Biol Chem 2004; 279:20889-97). Briefly, WI-38 lung fibroblasts were cultured in 6-cm dishes. After reaching confluence, cells were pretreated with specific inhibitors (E028 and G009) as indicated for 30 min, and then treated with the vehicle (H2O) or 10 ng/ml TGF-β for 2 h (CTGF assay) or 24 h (collagen I assay). Whole-cell lysates ([…]) were subjected to 12% (CTGF) or 8% (collagen I) SDS-PAGE, and transferred onto a polyvinylidene difluoride membrane which was then incubated in TBST buffer (150 mM NaCl, 20 mM Tris-HCl, and 0.02% Tween 20; pH 7.4) containing 5% BSA. Proteins were visualized by specific primary antibodies and then incubated with HRP-conjugated secondary antibodies. The immunoreactivity was detected using enhanced chemiluminescence (ECL) following the manufacturer's instructions. Quantitative data were obtained using a computing densitometer with scientific imaging systems (Kodak, Rochester, N.Y.).
# To determine whether the inhibitory effects of MPT0E028 and MPT0G009 on pro-fibrogenic mediators (TGF-β, thrombin, and ET-1) were related to the modulation of CTGF and Collagen I production, Western blot analysis was performed. First, WI-38 lung fibroblasts were incubated with different concentrations of MPT0E028 (0.01, 0.03, 0.1, 0.3, or 1 μM) (FIG. 10A) or MPT0G009 (0.01, 0.03, 0.1, 0.3, or 1 μM) (FIG. 10B) for 30 min before and during incubation for 2 h with TGF-β (10 ng/mL). […] Furthermore, we examined the effects of MPT0E028 and MPT0G009 on other pro-fibrogenic mediators. As shown in FIGS. 10C and 10D, WI-38 lung fibroblasts were incubated with 1 μM MPT0E028 and MPT0G009 for 30 min and following another incubation for 2 h with 1 U/ml thrombin (FIG. 10C) and 10 nM ET-1 (FIG. 10D).
# HDAC3 = test: HDAC isoform protein levels, Western blot, RA-FLS; format: cell-based; settings: 12 or 24 h; 1 μM MPT0G009 or 30 μM SAHA
# Description: Then cells were harvested and cell lysates were prepared for Western blot analysis of the indicated proteins. (FIG. 5C) RA-FLS were incubated for 1 h with or without the proteasome inhibitor, MG132 (1 μM). […] Results shown are representative of three independent experiments.
compound,measurement,setting,value
"COc1ccc(S(=O)(=O)N2CCc3cc(C=CC(=O)NO)ccc32)cc1 [Compound 9, 3-[1-(4-methoxybenzenesulfonyl)-2,3-dihydro-1H-indol-5-yl]-N-Hydroxyacrylamide]",subG1 peak (cellular apoptosis),"RA-FLS; MPT0G009 1-1000 nM, SAHA 3-3000 nM",did not increase the subG1 peak
same,G0/G1 phase arrest,RA-FLS; all concentrations of both agents,G0/G1 phase arrest was observed
same,PGE2 production by RA-FLS,prostaglandin E2 (PGE2),inhibited
same,ET-1-induced CTGF expression,"CTGF; 1 μM, 10 nM ET-1 2 h",inhibited
same,thrombin-induced CTGF expression,"CTGF; 1 μM, 1 U/ml thrombin 2 h",inhibited
same,TGF-β-induced CTGF production,"CTGF; 0.01-1 μM, TGF-β 10 ng/mL 2 h",significantly inhibited
same,levels of HDAC3 in RA-FLS,HDAC3,decreased levels of HDAC3
